Source: ChEMBL document CHEMBL4376803, “Recent Advances in the Exploration of Therapeutic Analogues of Gramicidin S, an Old but Still Potent Antimicrobial Peptide” (J Med Chem, 2019)
In brackets after ≈: the same amount, converted by molar mass. Square brackets hold non-standard residues; d marks the D form. Peptide text beside a SMILES is read from it. Orn = NCCC[C@H](N)C(=O)O

Key:
Type in all cases: functional
[1] = system: Escherichia coli; assay: Antibacterial activity against Escherichia coli UB1005 after overnight incubation by microtiter dilution method
[2] = system: Pseudomonas aeruginosa; assay: Antibacterial activity against Pseudomonas aeruginosa H187 after overnight incubation by microtiter dilution method
[3] = system: Enterococcus faecalis; assay: Antibacterial activity against Enterococcus faecalis ATCC 29212 after overnight incubation by microtiter dilution method
[4] = system: Staphylococcus aureus; assay: Antibacterial activity against Staphylococcus aureus K147 after overnight incubation by microtiter dilution method
[5] = system: Candida albicans; assay: Antibacterial activity against Candida albicans after overnight incubation by microtiter dilution method
[6] = system: Escherichia coli; assay: Antibacterial activity against Escherichia coli ATCC 25922
[7] = system: Pseudomonas aeruginosa; assay: Antibacterial activity against Pseudomonas aeruginosa ATCC 27853
[8] = system: Enterococcus faecalis; assay: Antibacterial activity against Enterococcus faecalis ATCC 29212
[9] = system: Staphylococcus aureus; assay: Antibacterial activity against Staphylococcus aureus ATCC 29213
[10] = system: Staphylococcus aureus; assay: Antibacterial activity against methicillin-resistant Staphylococcus aureus ATCC 4330
[11] = system: Escherichia coli; assay: Antibacterial activity against Escherichia coli NBRC 12734 after overnight incubation by microplate dilution method
[12] = system: Pseudomonas aeruginosa; assay: Antibacterial activity against Pseudomonas aeruginosa NBRC 3080 after overnight incubation by microplate dilution method
[13] = system: Bacillus subtilis; assay: Antibacterial activity against Bacillus subtilis NBRC 3513 after overnight incubation by microplate dilution method
[14] = system: Staphylococcus aureus; assay: Antibacterial activity against Staphylococcus aureus NBRC 12732 after overnight incubation by microplate dilution method
[15] = system: Priestia megaterium; assay: Antibacterial activity against Bacillus megaterium ATCC 19213 after overnight incubation by microplate dilution method
[16] = system: Escherichia coli; assay: Antibacterial activity against Escherichia coli ATCC 25922 after 24 hrs by broth dilution method; conditions: ATCC 25922, 24 h
[17] = system: Pseudomonas aeruginosa; assay: Antibacterial activity against Pseudomonas aeruginosa ATCC 19582 after 24 hrs by broth dilution method; conditions: ATCC 19582, 24 h
[18] = system: Enterococcus faecalis; assay: Antibacterial activity against Enterococcus faecalis 1131 after 24 hrs by broth dilution method; conditions: Enterococcus faecalis, 1131, 24 h
[19] = system: Staphylococcus aureus; assay: Antibacterial activity against Staphylococcus aureus 7323
[20] = system: Escherichia coli; assay: Antibacterial activity against Escherichia coli K-12 strain W3110 incubated for 20 hrs by liquid microdilution method; conditions: K-12 substr. W3110, 20 h
[21] = system: Staphylococcus aureus; assay: Antibacterial activity against Staphylococcus aureus 209P incubated for 20 hrs by liquid microdilution method
[22] = system: Pseudomonas aeruginosa; assay: Antibacterial activity against Pseudomonas aeruginosa ATCC 27853 incubated for 24 hrs; conditions: ATCC 27853, 24 h
[23] = system: Escherichia coli; assay: Antibacterial activity against Escherichia coli ATCC 25922 after 24 hrs; conditions: ATCC 25922, 24 h
[24] = system: Enterococcus faecalis; assay: Antibacterial activity against Enterococcus faecalis ATCC 29212 after 24 hrs; conditions: ATCC 29212, 24 h
[25] = system: Staphylococcus aureus; assay: Antibacterial activity against Staphylococcus aureus ATCC 29213 after 24 hrs; conditions: ATCC 29213, 24 h
[26] = system: Staphylococcus epidermidis; assay: Antibacterial activity against Staphylococcus epidermidis ATCC 12228 incubated for 24 hrs; conditions: ATCC 12228, 24 h
[27] = system: Bacillus cereus; assay: Antibacterial activity against Bacillus cereus ATCC 11778 incubated for 24 hrs; conditions: ATCC 11778, 24 h
[28] = system: Staphylococcus aureus; assay: Antibacterial activity against Staphylococcus aureus ATCC 25923 after 22 hrs by double dilution method; conditions: ATCC 25923, 22 h
[29] = system: Escherichia coli; assay: Antibacterial activity against Escherichia coli ATCC 25922 after 22 hrs by double dilution method; conditions: ATCC 25922, 22 h
[30] = system: Pseudomonas aeruginosa; assay: Antibacterial activity against Pseudomonas aeruginosa ATCC 27853 after 22 hrs by double dilution method; conditions: ATCC 27853, 22 h
[31] = system: Enterococcus faecalis; assay: Antibacterial activity against Enterococcus faecalis ATCC 29212 after 22 hrs by double dilution method; conditions: ATCC 29212, 22 h
[32] = system: Staphylococcus epidermidis; assay: Antibacterial activity against Staphylococcus epidermidis ATCC 12228 after 22 hrs by double dilution method; conditions: ATCC 12228, 22 h
[33] = system: Escherichia coli; assay: Antibacterial activity against Escherichia coli ATCC 8739 incubated for 48 hrs; conditions: ATCC 8739, 48 h
[34] = system: Pseudomonas aeruginosa; assay: Antibacterial activity against Pseudomonas aeruginosa ATCC 9027 incubated for 48 hrs; conditions: ATCC 9027, 48 h
[35] = system: Staphylococcus aureus; assay: Antibacterial activity against Staphylococcus aureus ATCC 6538 incubated for 48 hrs; conditions: ATCC 6538, 48 h
[36] = system: Bacillus subtilis; assay: Antibacterial activity against Bacillus subtilis CIP 52.65 incubated for 48 hrs; conditions: CIP 52.65, 48 h
[37] = system: Escherichia coli; assay: Antibacterial activity against Escherichia coli NBRC 12734
[38] = system: Pseudomonas aeruginosa; assay: Antibacterial activity against Pseudomonas aeruginosa NBRC 3080
[39] = system: Bacillus subtilis; assay: Antibacterial activity against Bacillus subtilis NBRC 3513
[40] = system: Staphylococcus aureus; assay: Antibacterial activity against Staphylococcus aureus NBRC 12732
[41] = system: Priestia megaterium; assay: Antibacterial activity against Bacillus megaterium ATCC 19213
[42] = system: Staphylococcus aureus; assay: Antibacterial activity against methicillin-resistant Staphylococcus aureus NT 1110301981H-T034-PVL+ incubated for 24 hrs
[43] = system: Escherichia coli; assay: Antibacterial activity against Escherichia coli K-12 ATCC 29181 after overnight incubation by broth microdilution method
[44] = system: Klebsiella pneumoniae; assay: Antibacterial activity against Klebsiella pneumonia K6 ATCC 700603 after overnight incubation by broth microdilution method; conditions: 700603 K6
[45] = system: Salmonella; assay: Antibacterial activity against Salmonella after overnight incubation by broth microdilution method
[46] = system: Staphylococcus aureus; assay: Antibacterial activity against multidrug-resistant Staphylococcus aureus ATCC BAA-44 after overnight incubation by broth microdilution method
[47] = system: Staphylococcus aureus; assay: Antibacterial activity against vancomycin-resistant Staphylococcus aureus Mu50/ATCC 700699 after overnight incubation by broth microdilution method
[48] = system: Staphylococcus epidermidis; assay: Antibacterial activity against Staphylococcus epidermidis ATCC 27626 after overnight incubation by broth microdilution method
[49] = system: Staphylococcus aureus; assay: Antibacterial activity against Staphylococcus aureus
[50] = system: Staphylococcus epidermidis; assay: Antibacterial activity against Staphylococcus epidermidis
[51] = system: Staphylococcus xylosus; assay: Antibacterial activity against Staphylococcus xylosus
[52] = system: Staphylococcus aureus; assay: Antibacterial activity against Staphylococcus aureus ATCC 49975 after 16 to 20 hrs by broth microdilution method

## CC(C)C[C@@H]1NC(=O)[C@H](CCCN)NC(=O)[C@H](C(C)C)NC(=O)[C@@H]2CCCN2C(=O)[C@@H](Cc2ccccc2)NC(=O)[C@H](CC(C)C)NC(=O)[C@H](CCCN)NC(=O)[C@H](C(C)C)NC(=O)[C@@H]2CCCN2C(=O)[C@@H](Cc2ccccc2)NC1=O (cyclo(V[Orn]L[dF]PV[Orn]L[dF]P))
[1]
  MIC: 6.2 µg/mL (≈ 5.43 µM)
[2]
  MIC: 20 µg/mL (≈ 17.5 µM)
[3]
  MIC: 2.8 µg/mL (≈ 2.45 µM)
[4]
  MIC: 1.5 µg/mL (≈ 1.31 µM)
[5]
  MIC: 3.1 µg/mL (≈ 2.72 µM)
[6]
  MIC: 32 µg/mL (≈ 28 µM)
[7]
  MIC: 64 µg/mL (≈ 56.1 µM)
[8]
  MIC: 8 µg/mL (≈ 7.01 µM)
[9]
  MIC: 4 µg/mL (≈ 3.5 µM)
[10]
  MIC: 8 µg/mL (≈ 7.01 µM)
[11]
  MIC: 25 µg/mL (≈ 21.9 µM)
[12]
  MIC: 25 µg/mL (≈ 21.9 µM)
[13]
  MIC: 3.13 µg/mL (≈ 2.74 µM)
[14]
  MIC: 3.13 µg/mL (≈ 2.74 µM)
[15]
  MIC: 3.13 µg/mL (≈ 2.74 µM)
[16]
  MIC: 32 µg/mL (≈ 28 µM)
[17]
  MIC: 8 µg/mL (≈ 7.01 µM)
[18]
  MIC: 8 µg/mL (≈ 7.01 µM)
[19]
  MIC: 8 µg/mL (≈ 7.01 µM)
[20]
  MIC: 32 µg/mL (≈ 28 µM)
[21]
  MIC: 4 µg/mL (≈ 3.5 µM)
[22]
  MIC: 64 µg/mL (≈ 56.1 µM)
[23]
  MIC: 32 µg/mL (≈ 28 µM)
[24]
  MIC: 8 µg/mL (≈ 7.01 µM)
[25]
  MIC: 8 µg/mL (≈ 7.01 µM)
[26]
  MIC: 8 µg/mL (≈ 7.01 µM)
[27]
  MIC: 8 µg/mL (≈ 7.01 µM)
[28]
  MIC: 4 µg/mL (≈ 3.5 µM)
[29]
  MIC: 32 µg/mL (≈ 28 µM)
[30]
  MIC: 64 µg/mL (≈ 56.1 µM)
[31]
  MIC: 8 µg/mL (≈ 7.01 µM)
[32]
  MIC: 2 µg/mL (≈ 1.75 µM)
[33]
  MIC: 12.5 µg/mL (≈ 11 µM)
[34]
  MIC: 50 µg/mL (≈ 43.8 µM)
[35]
  MIC: 3.12 µg/mL (≈ 2.74 µM)
[36]
  MIC: 1.56 µg/mL (≈ 1.37 µM)
[37]
  MIC: 25 µg/mL (≈ 21.9 µM)
[38]
  MIC: 25 µg/mL (≈ 21.9 µM)
[39]
  MIC: 3.13 µg/mL (≈ 2.74 µM)
[40]
  MIC: 3.13 µg/mL (≈ 2.74 µM)
[41]
  MIC: 3.13 µg/mL (≈ 2.74 µM)
[42]
  MIC: 8 µg/mL (≈ 7.01 µM)
[43]
  MIC: 28 µg/mL (≈ 24.5 µM)
[44]
  MIC: 3.6 µg/mL (≈ 3.15 µM)
[45]
  MIC: 28 µg/mL (≈ 24.5 µM)
[46]
  MIC: 1.8 µg/mL (≈ 1.58 µM)
[47]
  MIC: 3.6 µg/mL (≈ 3.15 µM)
[48]
  MIC: 1.8 µg/mL (≈ 1.58 µM)
[49]
  MIC: 2 µg/mL (≈ 1.75 µM)
[50]
  MIC: 2 µg/mL (≈ 1.75 µM)
[51]
  MIC: 1 µg/mL (≈ 0.876 µM)
[52]
  MIC: 2 µg/mL (≈ 1.75 µM)
